Test results published in patent US4876255A, “Substituted 1,4-dihydropyridines for control of circulation and thromboses” (Bayer Aktiengesellschaft, priority 1987, dated 1989).
Read-outs that look alike come from different tables or passages of the source.

Columns and labels:
[1] = test system: isolated perfused guineapig hearts; assay: Coronary and circulatory activity on isolated perfused guineapig hearts; conditions: Cavia porcellus, 10^-6 g/ml, difference to starting pressure set as 100%
Text: The coronary and circulatory activities were discovered using isolated perfused guineapig hearts.
For this, the hearts of 250 to 350 g guineapigs are used. The animals are killed by a blow to the head, the thorax is opened, and a metal cannula is tied into the exposed aorta. The heart is removed from the thorax with the lungs and is connected to the perfusion apparatus through an aortic cannula, with continuous perfusion. The lungs are removed at the lung roots. A Krebs Henseleit solution (1) (118.5 mmol/l of NaCl, 4.75 mmol/l of KCl, 1.19 mmol/l of KH2 PO4, 1.19 mmol/l of MgSO4, 25 mmol/l of NaHCO3, 0.013 mmol/l of Na2 EDTA), which contains 1.2 mmol/l of CaCl2, is used as the perfusion medium. 10 mmol/l of glucose are added as an energy-liberating substrate. Before the perfusion the solution is filtered until free of particles. The solution is gassed with Carbogen (95% O2, 5% CO2) in order to maintain a pH value of 7.4. The hearts are perfused at a constant flow rate (10 ml/min) at 32° C. using a peristaltic pump.
In order to measure the cardiac function, a latex balloon filled with liquid and connected through a column of liquid to a pressure gauge is introduced into the left ventricle through the left auricle, and the isovolumetric contractions are recorded on a high-speed recorder (Opie, L., J. Physiol. 180 (1965) 529-541). The perfusion pressure is recorded using a pressure gauge which is connected to the perfusion system upstream of the heart. Under these conditions a decrease in the perfusion pressure indicates coronary dilation, and a rise or fall in the amplitude of contraction of the left ventricle indicates an increase or decrease in cardiac contractility. The compounds according to the invention are infused into the perfusion medium at suitable dilutions just upstream of the isolated heart.
The following values show, as an example, the effect of the compounds according to the invention on isolated perfused guineapig hearts, expressed as the percentage difference to the starting pressure, set as equivalent to 100%.

TXA2 synthesis = assay: Inhibition of TXA2 synthesis (3H-arachidonic acid metabolism in washed human thrombocytes, TLC); format: cell-based; conditions: 10 min, 2 min pre-incubation, 10 min with 3H-arachidonic acid, 37° C., read-out: Minimal effective concentration for inhibition (MEC) of TXA2 synthesis
Text: Arachidonic acid metabolism in human thrombocytes was investigated using tritium-labelled arachidonic acid. Thrombocytes metabolize arachidonic acid to TXA2 and HHT via the cyclooxygenase pathway and to 12-HETE via the lipoxygenase pathway, which can be separated by thin layer chromatography [cf Bailey, J.M. et al., Prostaglandins 13, 479-492, (1977)], Inhibitors of the individual enzymatic reactions alter the chromatographic distribution pattern in a characteristic manner.
Washed human thrombocytes from healthy donors who had taken no drug for 14 days were incubated for 2 minutes at 37° C. with the test substance and then incubated for a further 10 minutes at 37° C. with ^3 H-arachidonic acid. The suspension was acidified and extracted with ethyl acetate. The ethyl acetate was evaporated off under a nitrogen atmosphere and the residue was taken up in methanol/trichloromethane (1:1) and applied to TLC plastic sheets. Separation was performed using a trichloromethane/methanol/glacial acetic acid/water (80:8:1:0.8) mobile solvent mixture. The distribution of radioactivity was measured by means of a radioscanner (Table 1).

PGI2 synthesis = assay: Prostacyclin stimulation in whole blood (collagen-induced, 6-keto-PGF1α radioimmunologically); format: cell-based; conditions: read-out: Stimulation of PGI2 synthesis (MEC)
Procedure: The 1,4-dihydrophyridines to be used according to the invention additionally stimulate the synthesis of PGI2. PGI2 has vasodilating and thrombocyte aggregation inhibiting activity, in contrast with the vasoconstrictor and thrombocyte aggregation […] action of thromboxan.
In whole blood, collagen induces the formation of PGI2. The endoperoxides formed in the thrombocytes are probably converted into PGI2 by leucocytes. The stable end product of PGI2 conversion, 6-keto-PGF1 α, is determined radioimmunologically (Table 2).

[2] = decrease indicates coronary dilation, read-out: % alteration in perfusion pressure
[3] = read-out: % alteration in contractility

Compound | inhibition at 1 µg/mL [1, 3] [%] | minimal effective concentration (TXA2 synthesis) [µg/mL] | other results
COC(=O)C1=C(C)NC(C)=C(C(=O)OCc2ccc(C3=NNC(=O)CC3)cc2)C1c1ccccc1Cl (stereo not shown) [Example 13] | 78 | – | percent change at 1 µg/mL [1, 2]: 0%
CC1=C(C(=O)OCCCc2cccnc2)C(CCc2cccnc2)C(C(=O)OCc2ccc(C3=NNC(=O)CC3)cc2)=C(C)N1 (stereo not shown) [Example 11] | 23 | 0.1 | inhibition at 1 µg/mL [1, 2]: 36%
CC1=C(C#N)C(CCc2cccnc2)C(C(=O)OCc2ccc(C3=NNC(=O)CC3)cc2)=C(C)N1 (stereo not shown) [Example 19] | – | 0.1 | –
CCOC(=O)C1=C(C)NC(C)=C(C(=O)OCc2ccc(C3=NNC(=O)CC3)cc2)C1c1cccc([N+](=O)[O-])c1 (stereo not shown) [Example 7, Ethyl 4-(6-oxo-1,4,5,6-tetrahydropyridazin-3-yl)benzyl 1,4-dihydro-2,6-dimethyl-4-(3-nitrophenyl)-pyridine-3,5-dicarboxylate] | 60 | – | percent change at 1 µg/mL [1, 2]: 0%
CC(=O)C1=C(C)NC(C)=C(C(=O)OCc2ccc(C3=NNC(=O)CC3)cc2)C1CCc1cccnc1 (stereo not shown) [Example 18] | – | 0.1 | –
COC(=O)C1=C(C)NC(C)=C(C(=O)OCCc2ccc(C3=NNC(=O)CC3)cc2)C1CCc1cccnc1 (stereo not shown) [Example 21] | – | – | minimal effective concentration (PGI2 synthesis): < 3 µg/mL
CC1=C(C(=O)OCCCc2cccnc2)C(CCc2cccnc2)C(C(=O)OCCc2ccc(C3=NNC(=O)CC3)cc2)=C(C)N1 (stereo not shown) [Example 22] | – | < 0.1 | minimal effective concentration (PGI2 synthesis): < 1 µg/mL
COC(=O)C1=C(C)NC(C)=C(C(=O)OCc2ccc(C3=NNC(=O)CC3)cc2)C1CCc1cccnc1 (stereo not shown) [Example 16] | – | 0.1 | –
